The results in this text go back to ChEMBL document CHEMBL1201862, “PubChem BioAssay data set” (2004).

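96-well plates; 48 h exposure; 5 concentrations. Endpoints by linear interpolation between flanking doses. Not reached: highest tested concentration assigned. The concentration for 50% growth inhibition is given as GI50.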 Activity calls are given as the source filed them. Rule as the data show it: active = GI50 up to about 1.1 µM and inactive = higher.

Among the test systems are A498; ACHN; BT-549; DU-145; HCC 2998; HCT-15; HOP-92; Hs-578T; K562; M14; MDA-MB-231; NCI-H23; NCI-H460; OVCAR-3; PC-3; RPMI-8226; RXF 393; SF-539; SK-MEL-5; TK-10.
Common to all, as to assay: NCI anticancer screen, dose series, 48 h

For `Cc1noc(C)c1-n1nc2ccc3nonc3c2n1`, the GI50 in the assay on A498 is 32.7 µM (inactive); with ACHN it was > 88.5 µM (inactive); in the assay with BT-549 it was 79.3 µM (inactive); in the assay on DU-145, > 100 µM (inactive); in the assay on HCC 2998, > 100 µM (inactive); in the assay on HCT-15, greater than 100 µM. The GI50 in the assay with HOP-92 is 29.1 µM (inactive); with Hs-578T, 29 µM (inactive); with K562 it was > 100 µM (inactive); in the assay with M14, > 100 µM (inactive); with MDA-MB-231 it was > 65.9 µM (inactive); with NCI-H23 it was > 72.8 µM (inactive). Further, the GI50 with NCI-H460 was > 100 µM (inactive); in the assay on OVCAR-3, > 100 µM (inactive); in the assay with PC-3, > 100 µM (inactive); in the assay with RPMI-8226 it was > 100 µM (inactive); with RXF 393 it was 23 µM (inactive); in the assay on SF-539, 41.5 µM (inactive). The GI50 in the assay on SK-MEL-5 was > 100 µM (inactive); with TK-10 it was 24.8 µM (inactive).
Turning to `O=C1/C(=C/Cc2ccco2)N=C(c2ccccc2)N1c1nc2c(Cl)cc(Cl)cc2s1`, the GI50 was 15.2 µM (inactive) in the assay on A498; 24.6 µM (inactive) in the assay on ACHN; 26 µM (inactive) in the assay with BT-549; 27.4 µM (inactive) in the assay with DU-145; 31.7 µM (inactive) with HCC 2998; 27.9 µM with HCT-15. In addition, the GI50 was 27.8 µM (inactive) with HOP-92; 23.6 µM (inactive) in the assay on Hs-578T; 25.1 µM (inactive) in the assay on K562; 39.3 µM (inactive) in the assay on M14; 27.2 µM (inactive) with MDA-MB-231; 32.2 µM (inactive) with NCI-H460. Also, the GI50 with OVCAR-3 was 22.5 µM (inactive); in the assay with PC-3, 28.3 µM (inactive); with RPMI-8226 it was 12.4 µM (inactive); with RXF 393, 13.4 µM (inactive); with SF-539, 23 µM (inactive); with SK-MEL-5 it was 22.5 µM (inactive). For the same molecule, in the assay with TK-10, the GI50 is 42.7 µM (inactive).
As for `Cc1c(S(=O)(=O)c2ccccc2)c(N)n(Cc2ccccc2)c1C`, the GI50 in the assay on A498 was > 100 µM (inactive); in the assay with ACHN, > 100 µM (inactive); in the assay on BT-549, > 100 µM (inactive); with DU-145, > 100 µM (inactive); in the assay with HCC 2998, > 100 µM (inactive); with HCT-15 it was greater than 100 µM. Moreover, the GI50 in the assay with HOP-92 was > 100 µM (inactive); with Hs-578T it was 53.1 µM (inactive); with K562, > 100 µM (inactive); with M14, 7.08 µM (inactive); in the assay with MDA-MB-231 it was > 100 µM (inactive); with NCI-H23 it was > 100 µM (inactive). Moreover, the GI50 with NCI-H460 is > 100 µM (inactive); in the assay with OVCAR-3, 96.8 µM (inactive); in the assay on PC-3 it was 38.2 µM (inactive); with RPMI-8226 it was > 100 µM (inactive); with RXF 393, 76.6 µM (inactive); in the assay with SF-539, 53.1 µM (inactive). The GI50 in the assay on SK-MEL-5 and with TK-10 was > 100 µM (inactive) in each case.
Regarding `C[C@@]1(CCCCCCCCCCc2ccccc2)C[C@@]2(C)OC(=O)C[C@H]2OO1`, the GI50 was 19.7 µM (inactive) in the assay with A498; 2.2 µM (inactive) in the assay with ACHN; 0.479 µM (active) with BT-549; 2.77 µM (inactive) with DU-145; 1.66 µM (inactive) in the assay on HCC 2998; 1.73 µM in the assay on HCT-15. The GI50 in the assay on HOP-92 was 0.769 µM (active); in the assay on Hs-578T, 2.47 µM (inactive); in the assay with K562, 1.68 µM (inactive); in the assay with M14, 1.51 µM (inactive); in the assay with MDA-MB-231, 1.67 µM (inactive); with NCI-H23 it was 1.55 µM (inactive). The GI50 in the assay with NCI-H460 was 1.96 µM (inactive); with OVCAR-3 it was 1.79 µM (inactive); in the assay on PC-3, 1.77 µM (inactive); in the assay on RPMI-8226, 1.85 µM (inactive); in the assay with RXF 393, 1.93 µM (inactive); with SF-539, 1.57 µM (inactive). In addition, the GI50 with SK-MEL-5 is 1.44 µM (inactive); in the assay on TK-10 it was 2.83 µM (inactive).
With `CN1C(c2ccccc2)CC(=NOCc2ccccc2)CC1c1ccccc1` (stereo unspecified), the GI50 in the assay on A498 is 44.7 µM (inactive); with ACHN it was 46.1 µM (inactive); with BT-549, 16.9 µM (inactive); with DU-145 it was 47.6 µM (inactive); in the assay on HCC 2998 it was > 71.9 µM (inactive); in the assay with HCT-15, 23.2 µM. Also, the GI50 in the assay with HOP-92 was 48.9 µM (inactive); in the assay on Hs-578T it was 36 µM (inactive); in the assay with K562, 13.8 µM (inactive); in the assay on M14, 42.5 µM (inactive); with MDA-MB-231 it was 43.7 µM (inactive); with NCI-H23, 28.2 µM (inactive). Further, the GI50 in the assay with NCI-H460 was 19.1 µM (inactive); in the assay on OVCAR-3 it was 29 µM (inactive); in the assay with PC-3, 24.7 µM (inactive); with RPMI-8226, 37.2 µM (inactive); with RXF 393 it was 54.5 µM (inactive); in the assay with SF-539, 36.9 µM (inactive). Besides, the GI50 with SK-MEL-5 was 33.7 µM (inactive); with TK-10, 46.9 µM (inactive).
As to `O=c1oc2ccccc2c2c1Sc1ccccc1N2`, the GI50 in the assay on A498 is > 100 µM (inactive); in the assay on ACHN, > 100 µM (inactive); in the assay with BT-549, > 100 µM (inactive); in the assay on DU-145, > 100 µM (inactive); in the assay on HCC 2998, 53 µM (inactive); in the assay with HCT-15, 36.2 µM. The GI50 with HOP-92 was 12.7 µM (inactive); in the assay with Hs-578T, > 100 µM (inactive); in the assay with K562, > 100 µM (inactive); in the assay on M14, > 100 µM (inactive); in the assay on MDA-MB-231, 85.5 µM (inactive); in the assay with NCI-H23 it was 74.8 µM (inactive). Also, the GI50 in the assay on NCI-H460 is 92.9 µM (inactive); in the assay on OVCAR-3, 68.9 µM (inactive); in the assay on PC-3 it was > 100 µM (inactive); with RPMI-8226 it was 47.2 µM (inactive); with RXF 393 it was 64.9 µM (inactive); with SF-539 it was > 100 µM (inactive). The GI50 is 48.9 µM (inactive) in the assay with SK-MEL-5 and > 100 µM (inactive) in the assay with TK-10.
Turning to `COc1c(Br)cc2c(c1OC)C(Br)CCC(Br)(Br)C2=O` (stereo unspecified), the GI50 was 3.32 µM (inactive) with A498; 2.29 µM (inactive) in the assay with ACHN; 0.527 µM (active) in the assay on BT-549; 3.01 µM (inactive) with DU-145; 5.08 µM (inactive) with HCC 2998; 0.314 µM in the assay with HCT-15. Moreover, the GI50 with HOP-92 is 3.3 µM (inactive); in the assay with Hs-578T it was 10.4 µM (inactive); in the assay on K562, 0.377 µM (active); in the assay with M14, 0.228 µM (active); in the assay with MDA-MB-231, 3.1 µM (inactive); in the assay on NCI-H23, 0.386 µM (active). The GI50 in the assay on NCI-H460 is 2.75 µM (inactive); with OVCAR-3 it was 1.14 µM (inactive); with PC-3 it was 1.44 µM (inactive); with RPMI-8226 it was 1.34 µM (inactive); in the assay on RXF 393, 0.706 µM (active); with SF-539, 1.85 µM (inactive). Also, the results for the GI50 with SK-MEL-5 and with TK-10 were 0.653 µM (active) and 3.17 µM (inactive), respectively.
Take `O=C(Nc1ccc(Cl)cc1)c1cc(S(=O)(=O)N2CCNNC2=O)c(S)cc1Cl`: the GI50 in the assay with A498 was > 100 µM (inactive); in the assay on ACHN it was > 100 µM (inactive); with BT-549 it was 35.7 µM (inactive); in the assay with DU-145 it was > 100 µM (inactive); with HCC 2998 it was > 100 µM (inactive); in the assay with HCT-15 it was greater than 100 µM. Moreover, the GI50 was 28.8 µM (inactive) in the assay with HOP-92; > 100 µM (inactive) in the assay on Hs-578T; > 100 µM (inactive) in the assay on K562; > 100 µM (inactive) in the assay with M14; > 100 µM (inactive) in the assay on MDA-MB-231; > 100 µM (inactive) with NCI-H460. The GI50 with OVCAR-3 was > 100 µM (inactive); with PC-3, > 100 µM (inactive); in the assay on RPMI-8226 it was 55.1 µM (inactive); in the assay with RXF 393, 17.4 µM (inactive); in the assay on SF-539, > 100 µM (inactive); in the assay on SK-MEL-5, > 100 µM (inactive). The GI50 in the assay on TK-10 is 52.5 µM (inactive).
Regarding `CN(C)CCCNc1cc(O)c2c(c1O)C(=O)c1ccccc1C2=O`, the GI50 was 19.5 µM (inactive) in the assay on A498; 12.9 µM (inactive) with ACHN; 17 µM (inactive) with BT-549; 14.8 µM (inactive) with DU-145; 5.26 µM in the assay on HCT-15; 12.3 µM (inactive) in the assay on HOP-92. Besides, the GI50 with Hs-578T was 29.2 µM (inactive); in the assay with K562 it was 2.79 µM (inactive); in the assay on M14, 5.38 µM (inactive); with MDA-MB-231, 12.6 µM (inactive); in the assay with NCI-H23, 13.3 µM (inactive); in the assay on NCI-H460, 6.46 µM (inactive). In addition, the GI50 is 11.3 µM (inactive) in the assay on OVCAR-3; 13.8 µM (inactive) in the assay with PC-3; 12.9 µM (inactive) in the assay with RPMI-8226; 4.59 µM (inactive) in the assay with RXF 393; 12.1 µM (inactive) in the assay with SF-539; 13.2 µM (inactive) in the assay on SK-MEL-5. Besides, the GI50 in the assay with TK-10 was 10.2 µM (inactive).
As to `CC1OC(O[C@H]2C3C=CO[C@@H](OC4OC(CO)C(O)C(O)C4O)C3[C@@]3(COC(=O)/C=C/c4ccccc4)O[C@@H]23)C(O)C(O)C1O` (stereo partly specified), the GI50 in the assay with A498 was > 100 µM (inactive); with ACHN it was > 100 µM (inactive); in the assay on BT-549, > 100 µM (inactive); with DU-145 it was > 100 µM (inactive); in the assay with HCC 2998 it was > 100 µM (inactive); in the assay on HCT-15, greater than 100 µM. For the same molecule, the GI50 in the assay on HOP-92, in the assay with Hs-578T, with K562, in the assay with M14, in the assay with MDA-MB-231 and in the assay on NCI-H23 was > 100 µM (inactive) in each case. Also, the GI50 in the assay with NCI-H460, in the assay on OVCAR-3, in the assay on PC-3, in the assay on RPMI-8226, in the assay on RXF 393 and in the assay on SK-MEL-5 was > 100 µM (inactive) each time. The GI50 with TK-10 is > 100 µM (inactive).
